# From US20210283139A1, “BIFUNCTIONAL MOLECULES FOR TARGETING UCHL5” (AMPHISTA THERAPEUTICS LTD, priority 2018, published 2021)
# Key:
# Type in all cases: cell-based
# [1] = target: T1, Brd2 (Homo sapiens, UniProt P25440); experiment: Concentration-dependent BET degradation, immunoblot, HEK293 cells; parameters: endogenous in cells; host or cells: HEK293; conditions: HEK293, Brd2, 6 h treatment, 1 nM-10 μM; for Dmax: read-out: Dmax (%) maximum degradation observed
# Description: (§1) Cell culture. HeLa (CCL-2) and HEK293 (CRL-1573) cells were purchased from ATCC and cultured in DMEM medium (Gibco) supplemented with 10% FBS, 100 μg/mL penicillin/streptomycin and L-glutamine. Cells were grown at 37° C. and 5% CO2, and were kept no longer than 30 passages. All cell lines were routinely tested for mycoplasma contamination using MycoAlert kit from Lonza.
# (§2) Immunoblotting. proteins were separated by SDS-PAGE on NuPage 4-12% Bis-Tris gels, followed by transfer to Amersham Protran 0.45 NC nitrocellulose membrane (GE Healthcare) using wet transfer. Membranes were blocked using 5% w/v milk in Tris-buffered saline (TBS) with 0.1% Tween-20. Blots were probed (overnight at 4° C.) using anti-Brd2 (Abcam ab139690, 1:2,000 dilution), anti-Brd3 (Abcam ab50818, 1:500 dilution), and anti-Brd4 (Abcam ab128874, 1:1,000 dilution) primary antibodies, as appropriate. The next day, blots were washed with TBST and incubated (1 hr at RT) with anti-Tubulin hFAB-rhodamine (BioRad, 12004166) primary antibody, and either anti-rabbit IRDye 800CW (Licor 1:10,000 dilution) or anti-mouse IRDye 800CW (Licor 1:10,000 dilution) secondary antibody. Blots were developed using a Bio-Rad ChemiDoc MP Imaging System, and band quantification was performed using Image Studio software (LiCor). Band intensities were normalized to the tubulin loading control and reported as % of the average 0.1% DMSO vehicle intensity. Degradation data was plotted and analysed using Prism (Graphpad, version 8).
# (§3) HeLa (5×10^5) and HEK293 (1×10^6) cells were seeded in standard 6-well plates (2 mL medium) overnight before treatment with compounds at the desired concentration (1 nM-10 μM), with a final DMSO concentration of 0.1% v/v. After 6 h treatment time, cells were washed with DPBS (Gibco) and lysed using 85 μL RIPA buffer (Sigma-Aldrich) supplemented with cOmplete Mini EDTA-free protease inhibitor cocktail (Roche) and benzonase. Lysates were clarified by centrifugation (20,000g, 10 min, 4° C.) and the total protein content of the supernatant was quantified using a Bradford colorimetric assay. Samples were prepared using equal amounts of total protein and LDS sample buffer (Invitrogen.
# (§4) Representative blots in FIG. 3 show depletion of Brd2, Brd3 and Brd4 protein levels following treatment with increasing concentrations of representative compounds. Band intensities were normalized to the β-tubulin loading control and reported as % of the average 0.1% DMSO vehicle intensity, with each point representing mean±SEM of two independent experiments (n=2). Degradation data was plotted and analysed using Prism (Graphpad, version 8)
# [2] = target: T2, Brd3 (Homo sapiens, UniProt Q15059); experiment: as above; parameters: endogenous in cells; host or cells: HEK293; conditions: HEK293, Brd3, 6 h treatment, 1 nM-10 μM; for Dmax: read-out: Dmax (%) maximum degradation observed
# Description: as §1, §2, §3, §4
# [3] = target: T3, Brd4 (S) (Homo sapiens, UniProt O60885); experiment: Concentration-dependent BET degradation, immunoblot, HeLa cells; conditions: 6 h treatment, 1 nM-10 μM; for Dmax: read-out: Dmax (%) maximum degradation observed
# T3 construct: endogenous in cells; host or cells: HEK293, HeLa
# Description: as §1, §2, §3, §4
# [4] = target: T4, Brd4 (L) (Homo sapiens, UniProt O60885); experiment: as above; conditions: 6 h treatment, 1 nM-10 μM; for Dmax: read-out: Dmax (%) maximum degradation observed
# T4 construct: endogenous in cells; host or cells: HEK293, HeLa
# Description: as §1, §2, §3, §4
# [5] = target: T3, Brd4 (S); experiment: Concentration-dependent BET degradation, immunoblot, HEK293 cells; conditions: 6 h treatment, 1 nM-10 μM; for Dmax: read-out: Dmax (%) maximum degradation observed
# Description: as §1, §2, §3, §4
# [6] = target: T4, Brd4 (L); experiment: as above; conditions: 6 h treatment, 1 nM-10 μM; for Dmax: read-out: Dmax (%) maximum degradation observed
# Description: as §1, §2, §3, §4
# [7] = target: T1, Brd2; experiment: Time-dependent BET degradation, immunoblot, HEK293 cells; parameters: endogenous in cells; host or cells: HEK293; conditions: HEK293, Brd2, 1 μM, timecourse 0-8 h
# Description: as §1, §2
# as §3, with “(3×10^5)” for “(5×10^5)”, “(0.5×10^6)” for “(1×10^6)”, “1 μM concentration,” for “the desired concentration (1 nM-10 μM),”, “incubation for the desired time (0-8 h),” for “6 h treatment time,”, “(20,000 g,” for “(20,000g,”, “(Invitrogen).” for “(Invitrogen.”
# as §4, with “FIG. 4” for “FIG. 3”, “following 1 μM” for “following”, “treatment at various time points” for “treatment”, “with” for “with increasing concentrations of”, “version 8).” for “version 8)”
# (§5) T½ (h) is the time required to deplete 50% of the protein relative to DMSO
# [8] = target: T2, Brd3; experiment: as above; parameters: endogenous in cells; host or cells: HEK293; conditions: HEK293, Brd3, 1 μM, timecourse 0-8 h
# Description: as §1, §2
# as §3, with “(3×10^5)” for “(5×10^5)”, “(0.5×10^6)” for “(1×10^6)”, “1 μM concentration,” for “the desired concentration (1 nM-10 μM),”, “incubation for the desired time (0-8 h),” for “6 h treatment time,”, “(20,000 g,” for “(20,000g,”, “(Invitrogen).” for “(Invitrogen.”
# as §4, with “FIG. 4” for “FIG. 3”, “following 1 μM” for “following”, “treatment at various time points” for “treatment”, “with” for “with increasing concentrations of”, “version 8).” for “version 8)”
# as §5
# [9] = target: T1, Brd2; experiment: Concentration-dependent BET degradation, immunoblot, HeLa cells; parameters: endogenous in cells; host or cells: HeLa; conditions: Brd2, 6 h treatment, 1 nM-10 μM; for Dmax: read-out: Dmax (%) maximum degradation observed
# Description: as §1, §2, §3, §4
# [10] = target: T2, Brd3; experiment: as above; parameters: endogenous in cells; host or cells: HeLa; conditions: Brd3, 6 h treatment, 1 nM-10 μM; for Dmax: read-out: Dmax (%) maximum degradation observed
# Description: as §1, §2, §3, §4
# [11] = target: T3, Brd4 (S); experiment: Time-dependent BET degradation, immunoblot, HeLa cells; parameters: dose or concentration left out as unconfirmed; conditions: timecourse 0-8 h
# Description: as §1, §2
# as §3, with “(3×10^5)” for “(5×10^5)”, “(0.5×10^6)” for “(1×10^6)”, “1 μM concentration,” for “the desired concentration (1 nM-10 μM),”, “incubation for the desired time (0-8 h),” for “6 h treatment time,”, “(20,000 g,” for “(20,000g,”, “(Invitrogen).” for “(Invitrogen.”
# as §4, with “FIG. 4” for “FIG. 3”, “following 1 μM” for “following”, “treatment at various time points” for “treatment”, “with” for “with increasing concentrations of”, “version 8).” for “version 8)”
# as §5
# [12] = target: T4, Brd4 (L); experiment: as above; parameters: dose or concentration left out as unconfirmed; conditions: timecourse 0-8 h
# Description: as §1, §2
# as §3, with “(3×10^5)” for “(5×10^5)”, “(0.5×10^6)” for “(1×10^6)”, “1 μM concentration,” for “the desired concentration (1 nM-10 μM),”, “incubation for the desired time (0-8 h),” for “6 h treatment time,”, “(20,000 g,” for “(20,000g,”, “(Invitrogen).” for “(Invitrogen.”
# as §4, with “FIG. 4” for “FIG. 3”, “following 1 μM” for “following”, “treatment at various time points” for “treatment”, “with” for “with increasing concentrations of”, “version 8).” for “version 8)”
# as §5
# [13] = target: T1, Brd2; experiment: as above; parameters: endogenous in cells; host or cells: HeLa; conditions: Brd2, 1 μM, timecourse 0-8 h
# Description: as §1, §2
# as §3, with “(3×10^5)” for “(5×10^5)”, “(0.5×10^6)” for “(1×10^6)”, “1 μM concentration,” for “the desired concentration (1 nM-10 μM),”, “incubation for the desired time (0-8 h),” for “6 h treatment time,”, “(20,000 g,” for “(20,000g,”, “(Invitrogen).” for “(Invitrogen.”
# as §4, with “FIG. 4” for “FIG. 3”, “following 1 μM” for “following”, “treatment at various time points” for “treatment”, “with” for “with increasing concentrations of”, “version 8).” for “version 8)”
# as §5
# [14] = target: T2, Brd3; experiment: as above; parameters: endogenous in cells; host or cells: HeLa; conditions: Brd3, 1 μM, timecourse 0-8 h
# Description: as §1, §2
# as §3, with “(3×10^5)” for “(5×10^5)”, “(0.5×10^6)” for “(1×10^6)”, “1 μM concentration,” for “the desired concentration (1 nM-10 μM),”, “incubation for the desired time (0-8 h),” for “6 h treatment time,”, “(20,000 g,” for “(20,000g,”, “(Invitrogen).” for “(Invitrogen.”
# as §4, with “FIG. 4” for “FIG. 3”, “following 1 μM” for “following”, “treatment at various time points” for “treatment”, “with” for “with increasing concentrations of”, “version 8).” for “version 8)”
# as §5
# [15] = target: T3, Brd4 (S); experiment: Time-dependent BET degradation, immunoblot, HEK293 cells; parameters: dose or concentration left out as unconfirmed; conditions: timecourse 0-8 h
# Description: as §1, §2
# as §3, with “(3×10^5)” for “(5×10^5)”, “(0.5×10^6)” for “(1×10^6)”, “1 μM concentration,” for “the desired concentration (1 nM-10 μM),”, “incubation for the desired time (0-8 h),” for “6 h treatment time,”, “(20,000 g,” for “(20,000g,”, “(Invitrogen).” for “(Invitrogen.”
# as §4, with “FIG. 4” for “FIG. 3”, “following 1 μM” for “following”, “treatment at various time points” for “treatment”, “with” for “with increasing concentrations of”, “version 8).” for “version 8)”
# as §5
# [16] = target: T4, Brd4 (L); experiment: as above; parameters: dose or concentration left out as unconfirmed; conditions: timecourse 0-8 h
# Description: as §1, §2
# as §3, with “(3×10^5)” for “(5×10^5)”, “(0.5×10^6)” for “(1×10^6)”, “1 μM concentration,” for “the desired concentration (1 nM-10 μM),”, “incubation for the desired time (0-8 h),” for “6 h treatment time,”, “(20,000 g,” for “(20,000g,”, “(Invitrogen).” for “(Invitrogen.”
# as §4, with “FIG. 4” for “FIG. 3”, “following 1 μM” for “following”, “treatment at various time points” for “treatment”, “with” for “with increasing concentrations of”, “version 8).” for “version 8)”
# as §5
# T1 sequence (P25440 whole entry): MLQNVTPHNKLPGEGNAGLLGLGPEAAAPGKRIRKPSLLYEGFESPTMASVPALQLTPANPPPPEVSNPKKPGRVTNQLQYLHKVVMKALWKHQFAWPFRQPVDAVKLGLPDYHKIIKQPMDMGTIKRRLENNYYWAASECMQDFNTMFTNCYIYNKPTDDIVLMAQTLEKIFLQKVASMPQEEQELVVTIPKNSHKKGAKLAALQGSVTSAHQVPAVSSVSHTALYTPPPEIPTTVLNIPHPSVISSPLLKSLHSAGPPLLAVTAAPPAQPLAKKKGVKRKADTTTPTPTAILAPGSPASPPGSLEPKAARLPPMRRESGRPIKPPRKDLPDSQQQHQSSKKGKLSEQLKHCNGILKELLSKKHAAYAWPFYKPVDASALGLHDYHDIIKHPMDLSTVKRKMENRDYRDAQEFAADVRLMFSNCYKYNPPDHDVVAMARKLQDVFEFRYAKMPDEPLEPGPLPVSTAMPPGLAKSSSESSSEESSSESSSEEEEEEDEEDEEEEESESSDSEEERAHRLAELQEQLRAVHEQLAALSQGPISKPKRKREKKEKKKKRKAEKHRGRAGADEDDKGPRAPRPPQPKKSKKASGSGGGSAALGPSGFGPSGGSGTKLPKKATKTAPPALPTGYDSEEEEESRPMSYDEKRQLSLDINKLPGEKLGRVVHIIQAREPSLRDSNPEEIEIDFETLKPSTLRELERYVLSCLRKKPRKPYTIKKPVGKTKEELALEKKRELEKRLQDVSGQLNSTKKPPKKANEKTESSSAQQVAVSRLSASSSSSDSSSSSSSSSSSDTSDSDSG
# T2 sequence (Q15059 whole entry): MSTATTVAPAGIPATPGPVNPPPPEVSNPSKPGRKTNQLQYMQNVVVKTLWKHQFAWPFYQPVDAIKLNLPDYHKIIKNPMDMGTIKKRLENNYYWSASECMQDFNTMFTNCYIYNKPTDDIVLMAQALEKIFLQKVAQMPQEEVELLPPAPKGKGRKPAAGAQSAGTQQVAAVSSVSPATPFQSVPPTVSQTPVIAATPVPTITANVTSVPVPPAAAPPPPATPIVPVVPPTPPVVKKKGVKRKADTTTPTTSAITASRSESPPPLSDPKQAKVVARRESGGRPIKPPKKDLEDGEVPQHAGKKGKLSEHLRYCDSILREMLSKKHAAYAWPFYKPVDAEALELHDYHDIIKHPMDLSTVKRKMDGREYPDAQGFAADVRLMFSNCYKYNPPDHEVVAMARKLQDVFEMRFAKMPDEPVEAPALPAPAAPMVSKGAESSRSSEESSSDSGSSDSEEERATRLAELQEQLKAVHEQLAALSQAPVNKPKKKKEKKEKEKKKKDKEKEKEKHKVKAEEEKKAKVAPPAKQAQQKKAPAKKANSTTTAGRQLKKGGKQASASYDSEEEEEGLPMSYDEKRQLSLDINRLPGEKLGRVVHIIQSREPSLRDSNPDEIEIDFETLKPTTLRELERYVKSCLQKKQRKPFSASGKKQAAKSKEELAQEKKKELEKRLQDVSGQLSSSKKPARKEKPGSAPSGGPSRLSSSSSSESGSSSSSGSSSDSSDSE
Compound,DC50 [1] [nM],Dmax [1] [%],DC50 [2] [nM],Dmax [2] [%],DC50 [3] [nM],Dmax [3] [%],DC50 [4] [nM],Dmax [4] [%],DC50 [5] [nM],Dmax [5] [%],DC50 [6] [nM],Dmax [6] [%],Dmax at 1 µM [7] [%],Dmax at 1 µM [8] [%],DC50 [9] [nM],Dmax [9] [%],DC50 [10] [nM],Dmax [10] [%],Dmax [11] [%],Dmax [12] [%],also measured
CCCC(NC(=O)/C(C#N)=C/c1cccc(Br)n1)c1ccc(OCC=NOCC(=O)NCCOCCOCCOCCNC(=O)c2ccc3c(c2)[C@H](Nc2ccc(Cl)cc2)C[C@H](C)N3C(C)=O)cc1 (stereo partly drawn) [Example 05IB2],51 to 500,51 to 70,51 to 500,≥ 71,51 to 500,≥ 71,51 to 500,≥ 71,≤ 50,≥ 71,≤ 50,≥ 71,76,100,51 to 500,26 to 50,51 to 500,26 to 50,67,67,Dmax at 1 µM [13]: 50%; Dmax at 1 µM [14]: 93%; Dmax [15]: 100%; Dmax [16]: 100%
CCCC(NC(=O)/C(C#N)=C/c1nc(Cl)ccc1Cl)c1ccc(OCCOCCOCCOCCOCCOCCOCCNC(=O)c2ccc(-c3ccc4c(c3)[C@H](Nc3ccc(Cl)cc3)C[C@H](C)N4C(C)=O)cc2)cc1 (stereo partly drawn) [Example 05IB10],51 to 500,51 to 70,51 to 500,≥ 71,51 to 500,≥ 71,≤ 50,51 to 70,≤ 50,≥ 71,≤ 50,≥ 71,82,90,≤ 50,≥ 71,51 to 500,≥ 71,100,100,Dmax at 1 µM [13]: 97%; Dmax at 1 µM [14]: 100%; Dmax [15]: 99%; Dmax [16]: 100%
